Laboratory results published in patent publication US6589966B1, “Cytotoxic metal chelators and methods for making and using same” (Wake Forest University Health Sciences, priority 1998, dated 2003).
Read-outs that look alike come from different tables or passages of the source.

Columns and labels:
[1] = tested on: mouse (MBT2) bladder cancer cells; test: MTT dye reduction cell viability assay on MBT2 cells; format: cell-based
Description: (§1) The cytotoxic effects of tachpyr on mouse (MBT2) and human (T24) bladder cancer cells were evaluated in vitro, and compared to normal human fibroblasts (MRC-5). MBT2 cells were provided by Dr. L. Lattime (Thomas Jefferson University, Philadelphia, Pa.), while MRC-5 cells were a gift of H. Blau (Standford University, Standford, Calif.). T24 cells were obtained from ATTC (Rockville, Md.). Cells were grown in RPMI (MBT2) or DME medium (T24 and MRC-5) containing 10% fetal bovine serum in a humidified chamber containing 5% CO2. 5×10^3 cells were plated into 96-well tissue culture dishes, and permitted to attach overnight. Test compounds were then added, with six replicate cultures used for each point.
After 72 hours, cell viability was assessed using an MTT dye reduction assay [Mosmann, T., J. Immunol. Meth. 65:55 (1983)]. The MTT assay is widely used to measure drug effects on cell viability. [see Richardson, D., Blood 86:4295 (1995); Brüggerman, S., Cancer Res. 57:2676 (1997); and Silber, R., Blood 84:3440 (1994)]. Specifically, (3-(4,5-dimethylthiazol-2-yl)-2,5-diphenyl tetraxolium bromide was added to the medium, and the formation of a reduced product was assayed by measuring the optical density at 560/650 nm after 3 hours. Color formation was considered proportional to viable cell numbers. IC50 was defined as the concentration required to inhibit viability by 50%, and was calculated using the Multiple Drug-effect Analysis Program (Biosoft).
MBT2 cells were then incubated with 150 μM (dfo) or 25 μM tachpyr for various lengths of time, and survival was then measured using the MTT assay described above. Viability at time 0 was defined as 100%. […] Rather, cytotoxicity was delayed by approximately 24 hours, paralleling the cytotoxic time course of desferioxamine.
The metal complexes of tachpyr were prepared as disclosed in Example 3, and their effects on MBT2 cells were compared to those of tachpyr after 72 hours using the MTT assay referenced in Example 8.

[2] = Richardson, D., Blood 86:4295 (1995); cited from earlier work
[3] = tested on: tumor cells
[4] = tested on: breast cancer cell lines; test: Cytotoxicity to breast cancer cell lines; format: cell-based
[5] = tested on: human (T24) bladder cancer cells; test: MTT dye reduction cell viability assay on T24 cells; format: cell-based; conditions: cell type T24, 72 hours, read-out: IC50(μM) of Tachpyr
Description: as §1
(§2) After 72 hours, cell viability was assessed using an MTT dye reduction assay [Mosmann, T., J. Immunol. Meth. 65:55 (1983)]. The MTT assay is widely used to measure drug effects on cell viability. [see Richardson, D., Blood 86:4295 (1995); Brüggerman, S., Cancer Res. 57:2676 (1997); and Silber, R., Blood 84:3440 (1994)]. […]

[6] = tested on: ferritin synthesis; test: Ferritin synthesis (35S labeling, immunoprecipitation, SDS PAGE); format: cell-based; conditions: 20 μM tachpyr, 16 hours
Description: Ferritin is a major iron storage protein whose synthesis is dependent upon intracellular concentrations of iron. To examine the role of tachpyr in the chelation of intracellular iron, the influence of tachpyr on ferritin synthesis was examined. Cells were exposed for either 7 or 16 hours to media containing either no additions, 20 μM tachpyr, 150 μM desferioxamine or 200 μM ferric nitrolotriacetate. During the last two hours of incubation, cells were metabolically labeled with S-translabel (ICN) and ferritin visualized by immunoprecipitation and SDS PAGE [Torti, S. et al.,J. Biol. Chem. 263:12638 (1988).]

[7] = tested on: MBT2 or T24 cultured bladder cancer cells; test: Cytotoxicity toward cultured bladder tumor cells; format: cell-based; conditions: cultured human and mouse bladder tumor cells
Description: as §1, §2

[8] = tested on: MBT2 cells; test: Clonogenic assay; format: cell-based, mouse; conditions: 72 hours with tachpyr, colonies grown seven days
Description: Cell viability was also-assessed using a clonogenic assay, which measures the ability of cells to divide and form visible colonies of about 50 or more cells. Replicate plates were exposed to various concentrations of tachpyr added to the growth medium. Control cells received no tachpyr. At the end of the incubation period, the surviving cells were trypsinized, diluted, and re-plated in growth medium without tachpyr. Colonies were permitted to grow for seven days. The growth medium was then removed, and plates were fixed with 0.5% gluteraldehyde, stained with 1% crystal violet, and then counted.

[9] = tested on: normal human fibroblasts (MRC-5); test: MTT dye reduction cell viability assay on MRC-5 cells; format: cell-based; conditions: cell type MRC-5, 72 hours, read-out: IC50(μM) of Tachpyr
Description: as §1, §2

[10] = tested on: RAW 264.7 cells; test: Apoptosis: DNA fragmentation by agarose gel electrophoresis; format: cell-based; conditions: 25 μM, 0, 6, 12 and 20 hours
From the text: Apoptosis, or “programmed cell death,” is a process initiated by many anti-cancer agents. Pathways of apoptosis involve complex intracellular changes, including the action of intracellular proteases (caspases), release of cytochrome C, mitochondrial changes, nuclear condensation and fragmentation, and ultimately cell death. A hallmark of apoptotic cell death is the appearance of “DNA ladders”: DNA cleaved at […] regions to generate a series of DNA fragments that can be visualized using agarose gel electrophoresis. In order to determine whether tachpyr triggers apoptotic pathways, DNA was isolated from RAW 264.7 cells that had been treated with 25 μM tachpyr for 0, 6, 12 and 20 hours. DNA was also isolated from cells treated for 7 hours with 50 μM cisplatin or 500 μM etoposide (VP16). Cisplatin and etoposide are DNA damaging agents that are currently used in cancer therapy and are known to induce apoptosis. They served as positive controls. We compared the effects of tachpyr, VP16 and cisplatin on DNA fragmentation using agarose gel electrophoresis. […] Thus, cytotoxic pathways elicited by tachpyr are similar to those evoked by classic anti-cancer agents, and are consistent with its contemplated use as a chemotherapeutic agent.

[11] = tested on: cell culture; test: Preliminary cell culture experiments comparing toxicity of tachpyr with tachpn; format: cell-based
From the text: In order to further explore the hypothesis that oxidative dehydrogenation is involved in chelator toxicity, the tach-based chelator with three N-propyleneamino arms (termed tachpn, Scheme 4 as shown in FIG. 3) has been studied. Tachpn is distinguished from tachpyr in having the —C(H)(CH3)(NH2) fragment in place of the pyridine ring. The α-hydrogens of tachpn are sterically hindered, relative to tachpyr, by the methyl group in the β position, so that tachpn may have a lower propensity toward α-hydrogen abstraction. Further, the pseudo-benzylic H^a of tachpyr would also have a potentially greater tendency to be abstracted, as compared to tachpn, on electronic grounds [see March, J., Advanced Organic Chemistry. McGraw-Hill, pp 914 ff) The considerations would imply that tachpn is less able than tachpyr to undergo oxidative dehydrogenation and to reduce Fe(III). Preliminary cell culture experiments were conducted to compare the toxicity of tachpyr with tachpn (FIG. 3).

[12] = tested on: tumor cells; conditions: background statement; cited from earlier work

Question: With `CC(=O)N(O)CCCCCNC(=O)CCC(=O)N(O)CCCCCNC(=O)CCC(=O)N(O)CCCCCN` [desferrioxamine, reference compound] as the molecule, how does the “cytotoxicity (in words)” value ([1]; MBT2 cells, 72 hours, MTT) read?
Answer: cytotoxic

Question: What about the IC50 ([1]; Mus musculus, MBT2 cells, 72 hours, MTT, single experiment of FIG. 8, read-out: calculated IC50 from FIG. 8 data) of the same molecule?
Answer: 70 µM

Question: And the IC50 ([1]; Mus musculus, MBT2 cells, 72 hours, MTT, tachpyr: average of four independent experiments ± standard error, read-out: IC50)?
Answer: 70 µM

Question: What about the IC50 [2] of the same molecule?
Answer: 70 µM

Question: Which “cytotoxicity (in words)” value [3] does the source give for `C(=NC1CC(N=Cc2ccccn2)CC(N=Cc2ccccn2)C1)c1ccccn1` (stereo not drawn) [tachpyr-3H2, cis,cis-1,3,5-tris(pyridine-2-carboxaldimino)cyclohexane] here?
Answer: no cytotoxicity

Question: For `c1ccc(CNC2CC(NCc3ccccn3)CC(NCc3ccccn3)C2)nc1` (centres unmarked) [tachpyr], which “cytotoxicity (in words)” value [4] is on record?
Answer: cytotoxic

Question: What about the delay of cytotoxicity ([1]; MBT2 cells, 25 μM tachpyr, time course, MTT) of the same molecule?
Answer: approximately 24 hours

Question: What about the “cytotoxicity (in words)” value ([1]; MBT2 cells, 72 hours, MTT) of the same molecule?
Answer: cytotoxic

Question: What about the IC50 ([1]; MBT2 cells, 72 hours, MTT, single experiment of FIG. 8, read-out: calculated IC50 from FIG. 8 data) of the same molecule?
Answer: 3.6 µM

Question: What about the IC50 ([1]; MBT2 cells, 72 hours, MTT, tachpyr: average of four independent experiments ± standard error, read-out: IC50) of the same molecule?
Answer: 4.6 ± 2 µM

Question: And the IC50 ([1]; Table I, cell type MBT2, read-out: IC50(μM) of Tachpyr)?
Answer: 2.2 µM

Question: And the IC50 [5]?
Answer: 4.3 µM

Question: What about the ferritin synthesis [6] of the same molecule?
Answer: repressed

Question: What about the “toxicity (in words)” value [7] of the same molecule?
Answer: extremely toxic

Question: And the colony formation [8]?
Answer: inhibited colony formation

Question: What about the IC50 [9] of the same molecule?
Answer: 30.5 µM

Question: What about the “DNA fragmentation (DNA ladders)” value [10] of the same molecule?
Answer: clearly induced DNA fragmentation

Question: With `CC(N)CNC1CC(NCC(C)N)CC(NCC(C)N)C1` (centres unmarked) [tachpn] as the molecule, how does the IC50 ([11]; preliminary cell culture experiments, cell line not stated) read?
Answer: ~80 µM

Question: What about the “decrease in toxicity relative to tachpyr” value ([11]; ratio of IC50 values) of the same molecule?
Answer: 17 fold

Question: Which “cytotoxicity (in words)” value ([1]; MBT2 cells, 72 hours, MTT) does the source give for `[Mn+2].[O-][Cl+3]([O-])([O-])[O-].[O-][Cl+3]([O-])([O-])[O-].c1ccc(CNC2CC(NCc3ccccn3)CC(NCc3ccccn3)C2)nc1` (centres unmarked) [MN(II) complex of tachpyr] here?
Answer: toxic

Question: Which “cytotoxicity (in words)” value ([1]; MBT2 cells, 72 hours, MTT) does the source give for “[Fe(tachpyr)]Cl2 [FE(II) complex of tachpyr]” here?
Answer: not toxic

Question: Which “cytotoxicity (in words)” value ([1]; MBT2 cells, 72 hours, MTT) does the source give for `[Cl-].[Cl-].[Mg+2].c1ccc(CNC2CC(NCc3ccccn3)CC(NCc3ccccn3)C2)nc1` (centres unmarked) [MG(II) complex of tachpyr] here?
Answer: toxic

Question: For `[O-][Cl+3]([O-])([O-])[O-].[O-][Cl+3]([O-])([O-])[O-].[Zn+2].c1ccc(CNC2CC(NCc3ccccn3)CC(NCc3ccccn3)C2)nc1` (centres unmarked) [Zn(II) complex of tachpyr], which “cytotoxicity (in words)” value ([1]; MBT2 cells, 72 hours, MTT) is on record?
Answer: not toxic

Question: Which “cytotoxic effects on tumor cells (in words)” value [12] does the source give for `c1ccc(-c2ccccn2)nc1` [bipy] here?
Answer: only weak cytotoxic effects

Question: Which “cytotoxicity (in words)” value ([1]; MBT2 cells, 72 hours, MTT) does the source give for `[Ca+2].[Cl-].[Cl-].c1ccc(CNC2CC(NCc3ccccn3)CC(NCc3ccccn3)C2)nc1` (centres unmarked) [Ca(II) complex of tachpyr] here?
Answer: toxic

Question: With `[Cl-].[Cl-].[Cu+2].c1ccc(CNC2CC(NCc3ccccn3)CC(NCc3ccccn3)C2)nc1` (centres unmarked) [CU(II) complex of tachpyr] as the molecule, how does the “cytotoxicity (in words)” value ([1]; MBT2 cells, 72 hours, MTT) read?
Answer: not toxic
